Test system: primary MM cells
Type: cell-based
Conditions: patient 210's primary MM cells, 0.05 μM, interval of 120 hours
Method: Each well was imaged every 30 minutes for a total duration of up to 6 days.

Compound: CC(C)C[C@H](NC(=O)[C@H](CCc1ccccc1)NC(=O)CN1CCOCC1)C(=O)N[C@@H](Cc1ccccc1)C(=O)N[C@@H](CC(C)C)C(=O)[C@@]1(C)CO1 [carfilzomib]
- delay between start of treatment and initiation of cell death: ~30 h

Source: patent publication US20220412955A1, “A MODEL OF CLINICAL SYNERGY IN CANCER” (priority 2019, published 2022)
